Test results reported in article PMC8847695 (Frontiers in Chemistry, 2022).

What was measured:
Assay type in all cases: binding
Details in all cases: 1 = hit, 0 = no hit
AAK1 (121-471) = AAK1 (121-471) (Homo sapiens, UniProt Q2M2I8); assay: STD-NMR fragment screening, AAK1
Method in brief: (§1)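 Saturation-transfer difference NMR was run at 25°C and 700 MHz with 20 µM protein, two fragments at 1 mM each, and 10% DMSO-d6. On-resonance saturation was at 0.5–0.6 ppm and off-resonance at 40 ppm, with a 3 s Gaussian-pulse train. A hit required a difference-spectrum peak at least three times the local noise.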

CAMK1G (1-320) = molecular target: T1, CAMK1G (1-320) (Homo sapiens, UniProt Q96NX5); assay: STD-NMR fragment screening, CAMK1G
T1 construct: made in house; host or cells: E. coli BL21 (DE3) pLysS
T1 sequence (Q96NX5 1-320): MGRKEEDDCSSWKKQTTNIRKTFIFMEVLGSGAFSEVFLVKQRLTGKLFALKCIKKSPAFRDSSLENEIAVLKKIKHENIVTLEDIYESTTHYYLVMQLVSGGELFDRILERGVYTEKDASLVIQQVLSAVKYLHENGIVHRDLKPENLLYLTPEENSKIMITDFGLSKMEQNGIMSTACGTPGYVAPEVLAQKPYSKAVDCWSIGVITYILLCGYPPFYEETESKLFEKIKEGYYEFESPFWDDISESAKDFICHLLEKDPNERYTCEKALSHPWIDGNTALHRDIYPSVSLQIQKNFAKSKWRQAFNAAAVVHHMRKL
Method in brief: as §1

IDO1 (1-435) = molecular target: T2, IDO1 (1-435) (Homo sapiens, UniProt P14902); assay: STD-NMR fragment screening, IDO1
T2 construct: His-tag of pET15b with TEV site (thrombin site replaced) (cleaved yes); made in house; host or cells: E. coli Rosetta 2 (DE3) pLysS
T2 sequence (P14902 whole entry, the tested form may be a part): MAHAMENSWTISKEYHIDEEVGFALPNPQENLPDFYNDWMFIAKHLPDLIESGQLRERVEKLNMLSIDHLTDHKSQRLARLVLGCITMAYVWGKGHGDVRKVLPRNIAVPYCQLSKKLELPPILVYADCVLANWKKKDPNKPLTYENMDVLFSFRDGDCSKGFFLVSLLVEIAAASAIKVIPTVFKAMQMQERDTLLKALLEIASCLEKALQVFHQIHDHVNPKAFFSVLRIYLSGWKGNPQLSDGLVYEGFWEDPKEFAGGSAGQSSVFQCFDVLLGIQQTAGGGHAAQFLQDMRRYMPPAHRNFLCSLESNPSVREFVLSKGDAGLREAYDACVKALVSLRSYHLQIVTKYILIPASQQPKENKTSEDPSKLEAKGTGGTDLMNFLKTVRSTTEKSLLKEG
Method in brief: as §1

DOT1L (1-416) = molecular target: T3, DOT1L (1-416) (Homo sapiens, UniProt Q8TEK3); assay: STD-NMR fragment screening, DOT1L
T3 construct: made in house; host or cells: E. coli BL21 (DE3) pLysS
T3 sequence (Q8TEK3 1-416): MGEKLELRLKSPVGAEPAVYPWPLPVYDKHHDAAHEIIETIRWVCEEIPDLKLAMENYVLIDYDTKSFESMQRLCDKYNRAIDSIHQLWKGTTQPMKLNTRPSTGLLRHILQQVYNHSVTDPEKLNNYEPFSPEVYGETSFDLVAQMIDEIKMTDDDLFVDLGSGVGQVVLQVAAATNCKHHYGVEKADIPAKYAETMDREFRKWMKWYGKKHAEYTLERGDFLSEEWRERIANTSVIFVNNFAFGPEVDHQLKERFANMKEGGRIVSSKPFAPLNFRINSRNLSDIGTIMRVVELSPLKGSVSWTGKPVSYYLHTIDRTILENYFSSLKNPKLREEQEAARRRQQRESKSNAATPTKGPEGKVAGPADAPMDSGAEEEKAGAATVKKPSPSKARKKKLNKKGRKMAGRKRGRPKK
Method in brief: as §1

AAK1 (121-471), sequence (Q2M2I8 46-315 limits assumed): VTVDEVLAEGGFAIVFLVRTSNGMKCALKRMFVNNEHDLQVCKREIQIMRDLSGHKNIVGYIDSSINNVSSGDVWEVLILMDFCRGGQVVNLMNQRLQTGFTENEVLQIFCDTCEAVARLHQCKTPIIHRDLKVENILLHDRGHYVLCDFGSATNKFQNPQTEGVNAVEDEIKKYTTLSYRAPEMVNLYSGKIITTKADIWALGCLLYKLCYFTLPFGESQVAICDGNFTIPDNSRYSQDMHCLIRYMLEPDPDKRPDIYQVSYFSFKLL

Row | SMILES | AAK1 (STD-NMR hit flag) (AAK1 (121-471)) | CAMK1G (STD-NMR hit flag) (CAMK1G (1-320)) | IDO1 (STD-NMR hit flag) (IDO1 (1-435)) | DOT1L (STD-NMR hit flag) (DOT1L (1-416))
1 | Nc1ccc(Br)c(C(=O)O)n1 [Fragment B02297395] | 0 | 0 | 0 | 0
2 | COc1ncc(Br)cc1C(=O)O [Fragment B02297396] | 0 | 0 | 0 | 0
3 | Fc1cc(C2CNCCN2)c(Cl)cc1Cl (stereo not shown) [Fragment B02297397] | 0 | 0 | 0 | 0
4 | O=C(O)c1sccc1Cl [Fragment B02297398] | 0 | 0 | 0 | 0
5 | OB(O)c1ccncc1Br [Fragment B02297399] | 0 | 0 | 0 | 0
6 | O=C(c1ccc(Cl)cc1)N1CCOCC1 [Fragment B02297400] | 0 | 0 | 0 | 0
7 | Oc1cccc(O)c1Br [Fragment B02297401] | 1 | 0 | 0 | 0
8 | Cc1cnc(C)c(Cl)n1 [Fragment B02297402] | 1 | 0 | 0 | 0
9 | O=C(O)c1cnccc1Br [Fragment B02297403] | 0 | 0 | 0 | 0
10 | CN1CCN(c2ccc(Br)cn2)CC1 [Fragment B02297404] | 0 | 0 | 0 | 0
11 | Cc1c(Cl)cnc(N)c1Cl [Fragment B02297405] | 1 | 1 | 0 | 1
12 | Cc1cc(N)c(Br)cn1 [Fragment B02297406] | 1 | 0 | 0 | 0
13 | COC(=O)c1cc(N)c(Cl)s1 [Fragment B02297407] | 1 | 0 | 0 | 1
14 | Brc1ccc(C2CNCCN2)s1 (stereo not shown) [Fragment B02297408] | 0 | 0 | 0 | 0
15 | Nc1ccc2[nH]cnc2c1Br [Fragment B02297409] | 1 | 0 | 0 | 0
16 | OC1CCN(c2cc(Cl)ncn2)CC1 [Fragment B02297410] | 1 | 0 | 0 | 0
17 | O=C(O)c1c(Cl)cncc1Cl [Fragment B02297411] | 0 | 0 | 1 | 0
18 | Nc1nc(Cl)c(NC=O)c(Cl)n1 [Fragment B02297412] | 0 | 0 | 0 | 0
19 | O=C(O)c1cc(Br)c(O)cc1O [Fragment B02297413] | 1 | 0 | 1 | 0

Row | SMILES | AAK1 (STD-NMR hit flag) (AAK1 (121-471)) | CAMK1G (STD-NMR hit flag) (CAMK1G (1-320)) | IDO1 (STD-NMR hit flag) (IDO1 (1-435)) | DOT1L (STD-NMR hit flag) (DOT1L (1-416))
20 | Clc1nsnc1N1CCOCC1 [Fragment B02297414] | 0 | 0 | 0 | 0
21 | Cn1cc(Br)c(N)n1 [Fragment B02297415] | 0 | 0 | 0 | 0
22 | CC(=O)Nc1ccc(Cl)c(C(=O)O)n1 [Fragment B02297416] | 0 | 0 | 0 | 0
23 | O=C(O)C(O)c1cccc(Cl)c1 (stereo not shown) [Fragment B02297417] | 0 | 0 | 0 | 0
24 | O=C(O)c1ncc(Cl)cc1Cl [Fragment B02297418] | 0 | 0 | 0 | 0
25 | Cc1[nH]c(=O)[nH]c(=O)c1I [Fragment B02297420] | 1 | 0 | 1 | 1
26 | [O-][n+]1ccc(Cl)cc1 [Fragment B02297421] | 0 | 0 | 0 | 0
27 | Brc1cnc(N2CCNCC2)nc1 [Fragment B02297422] | 1 | 1 | 0 | 0
28 | COc1ncc(C(=O)O)cc1Cl [Fragment B02297423] | 1 | 1 | 1 | 0
29 | Nc1cnccc1Br [Fragment B02297424] | 1 | 1 | 0 | 0
30 | O=c1ncc(Cl)c[nH]1 [Fragment B02297425] | 0 | 0 | 1 | 0
31 | O=C(O)c1ccncc1Br [Fragment B02297426] | 0 | 0 | 0 | 0
32 | O=c1cc(O)c(Cl)c[nH]1 [Fragment B02297427] | 0 | 0 | 1 | 0
33 | Cc1ccc(C(=O)O)c(Cl)n1 [Fragment B02297428] | 0 | 0 | 0 | 0
34 | COc1ncc(Cl)cc1C(=O)O [Fragment B02297429] | 0 | 0 | 1 | 0
35 | Nc1ncc(C(=O)O)cc1Br [Fragment B02297655] | 0 | 0 | 0 | 0
36 | CC(=O)CS(=O)(=O)c1cc(Cl)ccc1F [Fragment B02297765] | 0 | 0 | 0 | 0
37 | Cn1ncc(I)c1C(=O)NN [Fragment B02297766] | 0 | 0 | 0 | 0
